Assay results reported in publication PMC3853740, “Chlorinated Didemnins from the Tunicate Trididemnum solidum” (Marine Drugs, 2013).
Where two headings read alike, the source gives them in different places. *1 amine or outer side, *2 acyl side, *3 side chain or, on linkers, in order; H or OH if unused. Where a SMILES comes first, the peptide text is derived from it. Bridges are numbered along the chain shown (N, C = ends). [ ]: non-standard residue; d: D form. X1 = CC[C@H](C)[C@@H](N[*:1])[C@@H](O)CC(=O)O[C@H](C(=O)[C@H](C)C(=O)[*:2])C(C)C; X2 = CC(C(=O)C(OC(=O)CC(O)C(N[*:1])C(C)C)C(C)C)C(=O)[*:2]; X3 = COc1ccc(CC(C(=O)[*:2])N(C)[*:1])cc1Cl; NMeY = CN[C@@H](Cc1ccc(O)cc1)C(=O)O; dNMeL = CN[C@H](CC(C)C)C(=O)O; NMeL = CN[CH](CC(C)C)C(=O)O

How the values were obtained:
[1] = molecular target: T1, inducible nitric oxide synthase (iNOS) (Mus musculus, UniProt P29477); experiment: Inhibition of iNOS activity in LPS induced macrophages (RAW264.7 cells); type: cell-based
T1 construct: endogenous in cells; host or cells: RAW264.7 macrophages, LPS induced
T1 sequence (P29477 1-1144): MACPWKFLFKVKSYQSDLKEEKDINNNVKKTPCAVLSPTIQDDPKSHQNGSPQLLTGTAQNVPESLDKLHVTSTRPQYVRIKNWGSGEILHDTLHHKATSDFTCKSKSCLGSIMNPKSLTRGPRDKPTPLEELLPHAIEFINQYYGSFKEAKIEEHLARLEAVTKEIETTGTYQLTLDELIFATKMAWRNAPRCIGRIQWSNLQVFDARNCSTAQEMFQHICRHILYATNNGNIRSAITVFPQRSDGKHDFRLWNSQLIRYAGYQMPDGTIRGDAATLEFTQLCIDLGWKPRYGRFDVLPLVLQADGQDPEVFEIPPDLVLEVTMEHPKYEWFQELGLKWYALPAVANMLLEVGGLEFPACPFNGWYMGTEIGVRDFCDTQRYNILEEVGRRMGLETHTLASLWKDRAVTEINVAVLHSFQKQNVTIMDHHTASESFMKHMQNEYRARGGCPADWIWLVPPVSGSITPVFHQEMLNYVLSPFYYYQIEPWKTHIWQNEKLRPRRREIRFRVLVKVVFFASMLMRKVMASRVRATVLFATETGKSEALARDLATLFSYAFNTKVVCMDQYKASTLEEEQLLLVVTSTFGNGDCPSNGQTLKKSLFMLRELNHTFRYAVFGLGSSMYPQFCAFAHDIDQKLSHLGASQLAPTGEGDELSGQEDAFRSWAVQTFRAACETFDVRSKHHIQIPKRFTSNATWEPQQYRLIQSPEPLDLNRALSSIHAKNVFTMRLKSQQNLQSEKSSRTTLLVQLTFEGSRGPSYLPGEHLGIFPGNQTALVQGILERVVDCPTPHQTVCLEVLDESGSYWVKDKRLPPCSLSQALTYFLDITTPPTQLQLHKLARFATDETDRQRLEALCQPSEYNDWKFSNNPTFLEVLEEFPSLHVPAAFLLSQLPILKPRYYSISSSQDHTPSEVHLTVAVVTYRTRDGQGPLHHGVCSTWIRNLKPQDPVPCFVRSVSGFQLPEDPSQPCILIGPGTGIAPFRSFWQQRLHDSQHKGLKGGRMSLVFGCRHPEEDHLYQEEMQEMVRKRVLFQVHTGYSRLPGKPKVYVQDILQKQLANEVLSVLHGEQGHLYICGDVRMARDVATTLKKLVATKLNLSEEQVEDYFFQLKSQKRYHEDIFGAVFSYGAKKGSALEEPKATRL
Experimental: (§1) The isolated compounds 1–4 were tested in a series of in vitro cell-based assays for their effects on selected targets involved in the process of inflammation and cancer. Inflammation and oxidative stress are known to be linked to the development of many disorders such as cancer, organ damage, and neurodegenerative conditions. The NF-κB family of transcription factors plays a key role in inflammation, cell cycle regulation, apoptosis, and oncogenesis by controlling gene network expression. The activation of NF-κB involves many cellular processes leading to inflammation and development of cancer. In the assay for NF-κB activity, a luciferase construct with binding sites for specificity protein (SP-1) was used as a control because this transcription factor is relatively unresponsive to inflammatory mediators such as phorbol myristate acetate (PMA). Inducible nitric oxide synthase (iNOS) plays a key role in regulation of blood pressure, the immune system, infection, and inflammation. Overproduction of nitric oxide (NO) by iNOS has been implicated in various pathological processes such as septic shock, inflammation, rheumatoid arthritis, cancer, and tissue damage. The increase in NO response caused mainly by endotoxins and proinflammatory mediators such as lipopolysaccharide (LPS) can be reduced by anti-inflammatory agents acting as iNOS inhibitors. The isolated metabolites were also evaluated for their cytotoxicity towards four human solid tumor cell lines (SK-MEL: melanoma; KB: epidermal carcinoma; BT549: breast carcinoma and SK-OV-3: ovarian carcinoma) and non-cancer kidney cells (Vero: monkey kidney fibroblasts).
(§2) Similar to the effect of doxorubicin, the compounds (1–3) were less toxic towards noncancerous cells (Vero cells) which were included for comparison. The strong anticancer activity can be partly explained due to a strong inhibition of NF-κB mediated transcription that may cause enhanced apoptosis and cell death.
(§3) Inhibition of NF-κB mediated transcription was determined in SW1353 cells by a reporter gene assay as described by Ma et al.. Inhibition of iNOS activity was determined in RAW264.7 cells as described earlier. In vitro cytotoxicity was determined against a panel of four solid tumor cell lines and compared with noncancerous kidney cells (Vero). Parthenolide and doxorubicin were used as positive controls for anti-inflammatory and cytotoxic activity, respectively.

[2] = test system: nuclear factor-kappa B (NF-κB); experiment: Inhibition of NF-κB mediated transcription, reporter gene assay in PMA induced SW1353 chondrocytes; type: cell-based; conditions: Homo sapiens, SW1353 cells
Experimental: as §1, §2, §3

SK-MEL = experiment: In vitro cytotoxicity, SK-MEL melanoma; type: cell-based; conditions: Homo sapiens, read-out: Anti-cell proliferative activity IC50, SK-MEL
Experimental: as §1, §3

KB = experiment: In vitro cytotoxicity, KB epidermal carcinoma; type: cell-based; conditions: Homo sapiens, read-out: Anti-cell proliferative activity IC50, KB
Experimental: as §1, §3

BT-549 = experiment: In vitro cytotoxicity, BT-549 breast carcinoma; type: cell-based; conditions: Homo sapiens
Experimental: as §1, §3

SK-OV-3 = experiment: In vitro cytotoxicity, SK-OV-3 ovarian carcinoma; type: cell-based; conditions: Homo sapiens
Experimental: as §1, §3

VERO = experiment: In vitro cytotoxicity, Vero non-cancer kidney fibroblasts; type: cell-based, monkey; conditions: Primates, read-out: Anti-cell proliferative activity IC50, VERO
Experimental: as §1, §3

[3] = RAW264.7 cells, LPS induced, read-out: iNOS inhibition IC50
[4] = BT-549, read-out: Anti-cell proliferative activity IC50, BT-549
[5] = SK-OV-3, read-out: Anti-cell proliferative activity IC50, SK-OV-3

Row | SMILES | IC50 [1, 3] [nM] | IC50 [2] [nM] | IC50 (SK-MEL) [nM] | IC50 (KB) [nM] | IC50 (BT-549; [4]) [nM] | IC50 (SK-OV-3; [5]) [nM] | IC50 (VERO) [nM] | IC50 [1] [nM] | IC50 (SK-MEL; melanoma) [nM] | IC50 (KB; epidermal carcinoma) [nM] | IC50 (BT-549; BT-549, breast carcinoma, read-out: Anti-cell proliferative activity IC50, BT-549) [nM] | IC50 (SK-OV-3; SK-OV-3, ovarian carcinoma, read-out: Anti-cell proliferative activity IC50, SK-OV-3) [nM] | IC50 (VERO; noncancerous monkey kidney fibroblasts) [nM]
1 | CCC(C)C1NC(=O)C(NC(=O)C(CC(C)C)NC)C(C)OC(=O)C(Cc2ccc(OC)c(Cl)c2)N(C)C(=O)C2CCCN2C(=O)C(CC(C)C)NC(=O)C(C)C(=O)C(C(C)C)OC(=O)CC1O (centres unmarked) [Compound 1, N,O-diMe-o-chlorotyrosine derivative of didemnin A] | 400 | 260 | 120 | 260 | 160 | 260 | 4800 | – | – | – | – | – | –
2 | CNC(CC(C)C)C(=O)NC1C(=O)NC(C(C)C)C(O)CC(=O)OC(C(C)C)C(=O)C(C)C(=O)NC(CC(C)C)C(=O)N2CCCC2C(=O)N(C)C(Cc2ccc(OC)c(Cl)c2)C(=O)OC1C (centres unmarked) [Compound 2, nor-N,O-diMe-o-chlorotyrosine derivative of didemnin A] (H-[NMeL]T[X2]LP[X3]; ester 2-C; configuration not given here) | 420 | 620 | 60 | 420 | 160 | 380 | 2080 | – | – | – | – | – | –
3 | CC[C@H](C)[C@H]1NC(=O)[C@@H](NC(=O)[C@@H](CC(C)C)NC)[C@@H](C)OC(=O)[C@H](Cc2ccc(OC)cc2)N(C)C(=O)[C@@H]2CCCN2C(=O)[C@H](CC(C)C)NC(=O)[C@@H](C)C(=O)[C@H](C(C)C)OC(=O)C[C@@H]1O [Compound 3, didemnin A] (H-[dNMeL]T[X1]LP[NMeY](Me); ester 2-C) | – | 190 | 55 | 160 | 70 | 160 | 4780 | 190 | – | – | – | – | –
4 | CC[C@H](C)[C@H]1NC(=O)[C@@H](NC(=O)[C@@H](CC(C)C)N(C)C(=O)[C@@H]2CCCN2C(=O)C(C)O)[C@@H](C)OC(=O)[C@H](Cc2ccc(OC)cc2)N(C)C(=O)[C@@H]2CCCN2C(=O)[C@H](CC(C)C)NC(=O)[C@@H](C)C(=O)[C@H](C(C)C)OC(=O)C[C@@H]1O (some centres unmarked) [Compound 4, didemnin B] | – | 30 | 22 | 90 | 20 | 100 | 150 | 2 | – | – | – | – | –
5 | COc1cccc2c1C(=O)c1c(O)c3c(c(O)c1C2=O)C[C@@](O)(C(=O)CO)C[C@@H]3O[C@H]1C[C@H](N)[C@H](O)[C@H](C)O1 [Doxorubicin, reference compound] | – | – | – | – | – | – | – | – | 1100 | 1660 | 1010 | 1660 | 14000
6 | C=C1C(=O)O[C@H]2[C@H]1CC/C(C)=C/CC[C@@]1(C)O[C@@H]21 [Parthenolide, reference compound] | 2800 | 2800 | – | – | – | – | – | – | – | – | – | – | –
